Data reported in patent publication US20190185544A1, “COMPOSITIONS AND METHODS OF MODULATING ABETA PROTEIN” (University of South Florida, priority 2016, published 2019).

Key:
p44/42 MAPK = p44/42 MAPK phosphorylation in CHO/APPwt cell lysates (WB); format: cell-based, Chinese hamster; conditions: peptides 10 μM or apoE 10 μg/mL, 0 to 180 min
N-terminus of APP = test: Co-immunoprecipitation and co-localisation with N-terminal APP in CHO/APPwt cells; format: binding, human; conditions: peptides 10 μM or apoE 10 μg/mL, 2 h; IP with 6H3B5 or pN-APP
Method: Total secreted APP (t-sAPP) and full-length APP (f-APP) in total (inputs), immunoprecipitates and immunodepleted media and lysates were determined by WB using 22C11 or anti-C-terminal APP751/70 antibody (pC-APP), respectively (FIG. 20A left panels and FIG. 20B, top panels). Alternatively, conditioned media and cell lysates were IP with anti-N-terminal APP41/66 antibody (pN-APP) and apoE, or 6KApoEp and ApoEp, was determined using anti-human apoE antibody (ApoE1H4; FIG. 20A, right panels) or 6H3B5, respectively (FIG. 20B, bottom panels). In addition, CHO/APPwt cells were plated at 8 well-chambers at 1×10^5/well for 24 h, treated with 6K, ApoEp or 6KApoEp at 10 μM for 2 h, fixed in 4% paraformaldehyde and stained with 6H3B5 and pN-APP antibodies (FIG. 20C). Alexa Fluor 488 goat anti-mouse IgG (green) was used to detect ApoEp and 6KApoEp, while Alexa Fluor 594 donkey anti-rabbit IgG (red) was used to detect N-terminal APP. DAPI co-staining was done to show nuclear DNA. Homogenates prepared from three TgAPPwt mice (2 female/1 male), two AD patients (AD1[…], AD2[…]) and two normal age-matched control cortices (Ctrl1[…], Ctrl2[…]) were also IP with 6H3B5 or pN-APP and t-APP and apoE were determined using 6E10 and mApoE, respectively (FIGS. 20D-20E).
Total secreted APP in conditioned media and full length APP in cell lysates were then determined by WB using anti-N-terminal (22C11) and anti-C-terminal APP antibodies (pC-APP), respectively. […] In addition, ApoEp and 6KApoEp colocalized with N-terminal APP in cultured CHO/APPwt cells as determined by immunofluorescence staining with 6H3B5 and pN-APP antibodies (FIG. 20C), respectively, confirming that N-terminal APP physically associates with apoE in cell culture. […]
WB analyses were performed as previously described^43,44. […] For all other proteins detected by WB, 10% tris-SDS gels were used. Densitometry analysis was performed as previously described using a FluorS Multiimager with Quantity One™ software 43. […]

Sequence of N-terminus of APP (P05067 18-189 limits assumed): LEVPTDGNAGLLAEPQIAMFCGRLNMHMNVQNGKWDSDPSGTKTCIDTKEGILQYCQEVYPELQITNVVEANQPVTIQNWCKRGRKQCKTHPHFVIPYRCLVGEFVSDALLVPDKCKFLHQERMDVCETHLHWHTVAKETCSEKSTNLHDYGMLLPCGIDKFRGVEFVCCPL

| Substance | p44/42 MAPK phosphorylation (p44/42 MAPK) | immunoprecipitation and localization with N-terminal APP (N-terminus of APP) |
| --- | --- | --- |
| ApoE3: human recombinant apolipoprotein E3 protein (BioVision) | activated both p44/42 and p38 MAPK phosphorylation | immunoprecipitated and localized with N-terminal APP in vivo and in vitro |
| ApoE4: human recombinant apolipoprotein E4 protein (BioVision) | activated both p44/42 and p38 MAPK phosphorylation | immunoprecipitated and localized with N-terminal APP in vivo and in vitro |
